{
  "source": "patent US10159655B2",
  "about": "“Agent for inhibiting odor of pyrazine derivatives” (Kao Corporation, priority 2012, dated 2018)",
  "data": [
    {"system": "not listed separately", "experiment": "Sensory test of ability to reduce the odor of 2,6-dimethylpyrazine on cloth", "format": "in vivo", "conditions": "0.5 μL flavoring agent on 0.5 g cloth containing 1% 2,6-dimethylpyrazine; four panelists; FIG. 3", "experimental": "The abilities to reduce an odor of a pyrazine derivative by the antagonist substances identified in Example 3 were confirmed by a sensory test.\nA flavoring agent (0.5 μL) was added to cloth (0.5 g) containing 2,6-dimethylpyrazine (1%), and the odor thereof was evaluated by comparing the strength of odor of 2,6-dimethylpyrazine of the cloth not applied with flavor by the flavoring agent. The sensory evaluation test was performed by four panelists. In the evaluation, a case where a strong odor of 2,6-dimethylpyrazine was smelled was rated as 1, and a case where the odor of 2,6-dimethylpyrazine was not smelled at all was rated as 5.", "values": [
      {"smiles": "CC(C=O)Cc1ccc(C(C)(C)C)cc1", "note": "(stereo not drawn) [α-methyl-β-(p-tert-butylphenyl)-propionaldehyde]", "odor of 2,6-dimethylpyrazine inhibited (sensory evaluation, rating 1 strong odor to 5 not smelled)": "inhibited"},
      {"smiles": "CC(=O)C=CC1=C(C)CCCC1(C)C", "note": "[4-(2,6,6-trimethyl-1-cyclohexen-1-yl)-3-buten-2-one]", "odor of 2,6-dimethylpyrazine inhibited (sensory evaluation, rating 1 strong odor to 5 not smelled)": "inhibited"},
      {"smiles": "CC(=O)c1ccc2ccccc2c1", "note": "[β-methyl naphthyl ketone]", "odor of 2,6-dimethylpyrazine inhibited (sensory evaluation, rating 1 strong odor to 5 not smelled)": "inhibited"},
      {"smiles": "CC(C=O)Cc1ccc2c(c1)OCO2", "note": "(stereo not drawn) [α-methyl-3,4-methylenedioxyhydrocinnamic aldehyde]", "odor of 2,6-dimethylpyrazine inhibited (sensory evaluation, rating 1 strong odor to 5 not smelled)": "inhibited"},
      {"smiles": "C=CCCC(=O)C1=CCCC(C)(C)C1", "note": "[1-(5,5-dimethyl-1-cyclohexen-1-yl)-4-penten-1-one]", "odor of 2,6-dimethylpyrazine inhibited (sensory evaluation, rating 1 strong odor to 5 not smelled)": "inhibited"},
      {"smiles": "CC(C)=CCC/C(C)=C/CO", "note": "[(E)-3,7-dimethyl-2,6-octadien-1-ol]", "odor of 2,6-dimethylpyrazine inhibited (sensory evaluation, rating 1 strong odor to 5 not smelled)": "inhibited"},
      {"smiles": "CC(=O)/C(C)=C/C1C(C)=CCCC1(C)C", "note": "(stereo not drawn) [α-isomethyl ionone]", "odor of 2,6-dimethylpyrazine inhibited (sensory evaluation, rating 1 strong odor to 5 not smelled)": "inhibited"},
      {"smiles": "CCCCCCCC1CCC(=O)O1", "note": "(stereo not shown) [γ-undecalactone]", "odor of 2,6-dimethylpyrazine inhibited (sensory evaluation, rating 1 strong odor to 5 not smelled)": "inhibited"},
      {"smiles": "CCC=C(C)C(O)CCCCC", "note": "(stereo not shown) [4-methyl-3-decen-5-ol]", "odor of 2,6-dimethylpyrazine inhibited (sensory evaluation, rating 1 strong odor to 5 not smelled)": "inhibited"},
      {"smiles": "CCOC(=O)[C@]12CCC[C@H]1[C@@H]1CC[C@H]2C1", "note": "[ethyl-(3aα,4α,7α,3aα)-octahydro-4,7-methano-3aH-indene-3a-carboxylate]", "odor of 2,6-dimethylpyrazine inhibited (sensory evaluation, rating 1 strong odor to 5 not smelled)": "inhibited"},
      {"smiles": "CC(=CCC1CC=C(C)C1(C)C)CO", "note": "(stereo not shown) [2-methyl-4-(2,2,3-trimethyl-3-cyclopenten-1-yl)-2-buten-1-ol]", "odor of 2,6-dimethylpyrazine inhibited (sensory evaluation, rating 1 strong odor to 5 not smelled)": "inhibited"},
      {"smiles": "CC1C/C=C/CCCCCCCCCC(=O)C1", "note": "(stereo not shown) [(5E)-3-methylcyclopenta-5-decen-1-one]", "odor of 2,6-dimethylpyrazine inhibited (sensory evaluation, rating 1 strong odor to 5 not smelled)": "inhibited"},
      {"smiles": "CC=CC(=O)C1=C(C)C=CCC1(C)C", "note": "[1-(2,6,6-trimethyl-1,3-cyclohexadien-1-yl)-2-buten-1-one]", "odor of 2,6-dimethylpyrazine inhibited (sensory evaluation, rating 1 strong odor to 5 not smelled)": "inhibited"},
      {"smiles": "CC1=CC(C)C(C=O)CC1", "note": "(stereo not shown) [2,4-dimethyl-3-cyclohexene-1-carboxyaldehyde]", "odor of 2,6-dimethylpyrazine inhibited (sensory evaluation, rating 1 strong odor to 5 not smelled)": "inhibited"},
      {"smiles": "CCC(O)COC1CCCCC1C(C)(C)C", "note": "(stereo not shown) [1-(2-tert-butylcyclohexyloxy)-2-butanol]", "odor of 2,6-dimethylpyrazine inhibited (sensory evaluation, rating 1 strong odor to 5 not smelled)": "inhibited"},
      {"smiles": "CCCCCCC(C=O)=Cc1ccccc1", "note": "[α-hexylcinnamic aldehyde]", "odor of 2,6-dimethylpyrazine inhibited (sensory evaluation, rating 1 strong odor to 5 not smelled)": "inhibited"}
    ]},
    {"target": "T1, olfactory receptor OR5K1 (Homo sapiens, UniProt Q8NHB7)", "T1 construct": "expressed in transfected cells; host or cells: HEK293", "T1 sequence (Q8NHB7 1-308)": "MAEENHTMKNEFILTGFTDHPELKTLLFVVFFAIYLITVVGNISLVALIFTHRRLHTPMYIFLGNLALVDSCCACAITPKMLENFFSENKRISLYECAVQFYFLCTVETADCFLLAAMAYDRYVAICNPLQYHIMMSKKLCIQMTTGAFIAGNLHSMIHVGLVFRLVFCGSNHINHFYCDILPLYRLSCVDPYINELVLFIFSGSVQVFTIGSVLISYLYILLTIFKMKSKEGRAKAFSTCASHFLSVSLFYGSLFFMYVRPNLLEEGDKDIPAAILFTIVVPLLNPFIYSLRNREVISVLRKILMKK", "experiment": "Antagonistic activity against OR5K1: inhibition of the receptor response to 2,6-dimethylpyrazine (luciferase assay, HEK293 cells)", "format": "cell-based", "conditions": "2,6-dimethylpyrazine 1 mM + test substance 300 μM, cytotoxic flavoring agents re-evaluated at 333 μM 2,6-dimethylpyrazine + 100 μM test substance, read-out: Inhibition rate (receptor response-inhibiting rate)", "experimental": "The receptor response-inhibiting rate of a test substance was calculated as follows. The receptor activity (X-Y) by stimulation with 2,6-dimethylpyrazine alone was determined by subtracting the luminescence value (Y) in cells to which the receptor was introduced but were not stimulated with 2,6-dimethylpyrazine from the luminescence value (X) derived from firefly luciferase induced by stimulation with 2,6-dimethylpyrazine alone. Similarly, the receptor activity (Z-Y) in the presence of a test substance was determined by subtracting the luminescence value (Y) in cells not stimulated with 2,6-dimethylpyrazine from the luminescence value (Z) stimulated with a mixture of 2,6-dimethylpyrazine and the test substance. The reduction rate of the receptor activity (Z-Y) in the presence of a test substance to the receptor activity (X-Y) by stimulation with 2,6-dimethylpyrazine alone was calculated by the following computation expression: Inhibition rate (%)={1−(Z−Y)/(X−Y)}×100, to determine the receptor response-inhibiting rate of the test substance. In the measurement, multiple independent experiments were performed in duplicate, and the average of each experiment was used.", "units": {"inhibition at 300 µM": "%"}, "values": [
      {"smiles": "CC(C=O)Cc1ccc(C(C)(C)C)cc1", "note": "(stereo not drawn) [α-methyl-β-(p-tert-butylphenyl)-propionaldehyde]", "inhibition at 300 µM": "≥ 50"},
      {"smiles": "C=CCc1ccc(O)c(OC)c1", "note": "[1-allyl-3-methoxy-4-hydroxybenzene]", "inhibition at 300 µM": "≥ 40"},
      {"smiles": "CC(C=O)c1ccccc1", "note": "(stereo not shown) [2-phenylpropionaldehyde]", "inhibition at 300 µM": "≥ 50"},
      {"smiles": "CC(C)=CCCC(C)CCOCC=O", "note": "(stereo not shown) [6,10-dimethyl-3-oxa-9-undecenal]", "inhibition at 300 µM": "≥ 40"},
      {"smiles": "C=CCCC(=O)C1=CCCC(C)(C)C1", "note": "[1-(5,5-dimethyl-1-cyclohexen-1-yl)-4-penten-1-one]", "inhibition at 300 µM": "≥ 40"},
      {"smiles": "CC(C)=CCCC(C)CC=O", "note": "(stereo not shown) [3,7-dimethyl-6-octenal]", "inhibition at 300 µM": "≥ 50"},
      {"smiles": "Cc1ccc(C(C)C)c(O)c1", "note": "[5-methyl-2-(1-methylethyl)-phenol]", "inhibition at 300 µM": "≥ 75"},
      {"smiles": "O=C(OCCc1ccccc1)c1ccccc1O", "note": "[phenylethyl salicylate]", "inhibition at 300 µM": "≥ 75"},
      {"smiles": "CC(C=O)Cc1ccc(C(C)C)cc1", "note": "(stereo not drawn) [α-methyl-4-(1-methylethyl)-benzenepropanal]", "inhibition at 300 µM": "≥ 75"},
      {"smiles": "CC(=O)c1c(C)c([N+](=O)[O-])c(C(C)(C)C)c([N+](=O)[O-])c1C", "note": "[4-tert-butyl-2,6-dimethyl-3,5-dinitroacetophenone]", "inhibition at 300 µM": "≥ 40"},
      {"smiles": "CC(=O)c1cc2c(cc1C)C(C)(C)C(C)CC2(C)C", "note": "(stereo not shown) [1-(5,6,7,8-tetrahydro-3,5,5,6,8,8-hexamethyl-2-naphthalenyl)-ethanone]", "inhibition at 300 µM": "≥ 75"},
      {"smiles": "CC(C=O)C1CCCCC1", "note": "(stereo not shown) [2-cyclohexylpropanal]", "inhibition at 300 µM": "≥ 50"},
      {"smiles": "CC(=O)C1=C(C)C2CC3(C1)C(C)CCC3C2(C)C", "note": "(stereo not shown) [1-(2,3,4,7,8,8a-hexahydro-3,6,8,8-tetramethyl-1H-3a,7-methanoazulen-5-yl)-ethanone]", "inhibition at 300 µM": "≥ 50"},
      {"smiles": "CC(C)=CCC/C(C)=C/CO", "note": "[(E)-3,7-dimethyl-2,6-octadien-1-ol]", "inhibition at 300 µM": "≥ 40"},
      {"smiles": "CC(=O)C1(C)CC2=C(CCCC2(C)C)CC1C", "note": "(stereo not shown) [7-acetyl-1,2,3,4,5,6,7,8-octahydro-1,1,6,7-tetramethyl-naphthalene]", "inhibition at 300 µM": "≥ 75"},
      {"smiles": "CCC(=CCC1CC=C(C)C1(C)C)CO", "note": "(stereo not shown) [2-ethyl-4-(2,2,3-trimethyl-3-cyclopenten-1-yl)-2-buten-1-ol]", "inhibition at 300 µM": "≥ 75"},
      {"smiles": "CC(=O)c1cc(C(C)(C)C)cc2c1C=CC2(C)C", "note": "[6-tert-butyl-1,1-dimethylinden-4-yl methyl ketone]", "inhibition at 300 µM": "≥ 40"},
      {"smiles": "CC1(C)CCCC2(C)C1CCC1(C)OCCC12", "note": "(stereo not shown) [dodecahydro-3a,6,6,9a-tetramethylnaphtho[2,1-b]furan]", "inhibition at 300 µM": "≥ 50"},
      {"smiles": "C=C(OCC)C1C(C)(C)CC(=O)CC1(C)C", "note": "[4-(1-ethoxyvinyl)-3,3,5,5-tetramethylcyclohexanone]", "inhibition at 300 µM": "≥ 50"},
      {"smiles": "O=C1CCCCCCCCCCCC(=O)OCCO1", "note": "[1,4-dioxacycloheptadecane-5,17-dione]", "inhibition at 300 µM": "≥ 40"},
      {"smiles": "CC(C)=CCCC(C)=CC=O", "note": "[3,7-dimethyl-2,6-octadienal]", "inhibition at 300 µM": "≥ 75"},
      {"smiles": "CC(C)[C@H]1CC[C@@H](CO)CC1", "note": "[cis-4-isopropylcyclohexylmethanol]", "inhibition at 300 µM": "≥ 40"},
      {"smiles": "CC(=O)O[C@]1(C)CC[C@@]23C[C@@H]1C(C)(C)[C@@H]2CC[C@H]3C", "note": "[cedryl acetate]", "inhibition at 300 µM": "≥ 50"},
      {"smiles": "CCCCCCOC(=O)c1ccccc1O", "note": "[hexyl salicylate]", "inhibition at 300 µM": "≥ 40"},
      {"smiles": "CCC=C(C)C(O)CCCCC", "note": "(stereo not shown) [4-methyl-3-decen-5-ol]", "inhibition at 300 µM": "≥ 75"},
      {"smiles": "O=CC=Cc1ccccc1", "note": "[cinnamaldehyde]", "inhibition at 300 µM": "≥ 50"},
      {"smiles": "CC(=CCC1CC=C(C)C1(C)C)CO", "note": "(stereo not shown) [2-methyl-4-(2,2,3-trimethyl-3-cyclopenten-1-yl)-2-buten-1-ol]", "inhibition at 300 µM": "≥ 50"},
      {"smiles": "CC(C)CCCC(C)CCO", "note": "(stereo not shown) [3,7-dimethyl-1-octanol]", "inhibition at 300 µM": "≥ 50"},
      {"smiles": "CC=CC(=O)C1=C(C)C=CCC1(C)C", "note": "[1-(2,6,6-trimethyl-1,3-cyclohexadien-1-yl)-2-buten-1-one]", "inhibition at 300 µM": "≥ 40"},
      {"smiles": "CCC(O)COC1CCCCC1C(C)(C)C", "note": "(stereo not shown) [1-(2-tert-butylcyclohexyloxy)-2-butanol]", "inhibition at 300 µM": "≥ 75"},
      {"smiles": "CCCCCC1=C(C)CCC1=O", "note": "[2-pentyl-3-methyl-2-cyclopenten-1-one]", "inhibition at 300 µM": "≥ 40"},
      {"smiles": "CC=Cc1ccc(OCc2ccccc2)c(OC)c1", "note": "[2-methoxy-1-(phenylmethoxy)-4-(1-propenyl)-benzene]", "inhibition at 300 µM": "≥ 50"},
      {"smiles": "CCOCOC1CCCCCCCCCCC1", "note": "[formaldehyde cyclododecyl ethyl acetal]", "inhibition at 300 µM": "≥ 50"}
    ]}
  ]
}
